Test results from ChEMBL document CHEMBL3393032, “Synthesis of oolongtheanins and their inhibitory activity on micellar cholesterol solubility in vitro” (Bioorg Med Chem Lett, 2015).

Assay: Inhibition of micellar solubility of cholesterol assessed as cholesterol solubility at 10 g/L using [4-14C]cholesterol incubated at 37 degC for 1 hr by liquid scintillation counting method
Assay type: physicochemical
Parameters: scale not given: the % may be the effect or the level left

Row | Activity [%] | Compound
1 | 26.39 | O=C1C(O)=C[C@@]2([C@H]3Oc4cc(O)cc(O)c4C[C@H]3O)Oc3c(O)c(O)cc([C@H]4Oc5cc(O)cc(O)c5C[C@H]4O)c3[C@@H]12
2 | 1.4 | O=C(O[C@@H]1Cc2c(O)cc(O)cc2O[C@@H]1c1cc(O)c(O)c2c1[C@H]1C(=O)C(O)=C[C@@]1([C@H]1Oc3cc(O)cc(O)c3C[C@H]1OC(=O)c1cc(O)c(O)c(O)c1)O2)c1cc(O)c(O)c(O)c1
